Where “and” joins values, the source holds several entries; their conditions need not be identical. Equal values may be shown once. Read-outs that look alike come from different tables or passages of the source. Ends that are not written are not given here. Peptide text beside a SMILES is read from it.
Tests used:
[1] = test system: A. fumigatus B42928; type: cell-based, Aspergillus fumigatus; conditions: RPMI, 48 h, 37°C, resazurin
Description: (§1) To detect antimicrobial activity of the BSF AMPs, the peptide library underwent screening against a panel of microorganisms, consisting of S. aureus ATCC 6538, E. coli ATCC 8739, P. aeruginosa ATCC 9027, C. albicans B59630, and A. fumigatus B42928. Serial dilutions of the peptides were prepared from the DMSO stock solutions in sterile demineralized water in 96-well plates using an automated liquid-handling workstation (Beckman Coulter Biomek 3000) in end volumes of 10 μL. The final in-plate concentration of DMSO was <1%. Peptide concentrations ranged from 64 μM to 0.25 μM for the first evaluation, and from 32 μM to 0.016 μM for the independent repeat. As references, doxycycline (Sigma-Aldrich; S. aureus, E. coli, P. aeruginosa), flucytosine (Sigma-Aldrich; C. albicans), and econazole (Sigma-Aldrich; A. fumigatus) were used. Suspensions of a starting inoculum of 5 × 10^3 CFU/mL (E. coli, S. aureus, C. albicans, A. fumigatus) and 5 × 10^4 CFU/mL (P. aeruginosa) were prepared in MHB (bacterial species) or RPMI medium (fungal species) and 190 μL was added to the 96-well plates. Plates were incubated for 16 h (E. coli, S. aureus, P. aeruginosa), 24 h (C. albicans), or 48 h (A. fumigatus) at 37°C. After incubation, read-out of the antimicrobial activity was performed using a resazurin assay. Then, 20 μL of a 0.01% (wt/vol) resazurin (Sigma-Aldrich) solution was added to each well and plates were incubated for 15 min (S. aureus), 30 min (E. coli), 45 min (P. aeruginosa), 4 h (C. albicans), or 17 h (A. fumigatus) to allow resazurin reduction to take place. Fluorescence was read using a microplate reader (Telix) at λexcitation = 550 nm and λemission = 590. […] MIC values were determined visually. Medium in the wells with no visual growth was plated on MHA to detect the MBC, defined as ≥3 log reduction compared with the growth control.

[2] = test system: S. aureus ATCC 6538; type: cell-based, Staphylococcus aureus; conditions: for IC50: MHB, 37°C, resazurin, 50% growth inhibition; for IC50 / MIC S. aureus ATCC 6538: 16 h; for MIC S. aureus ATCC 6538: determined visually; for MBC S. aureus ATCC 6538: wells without visual growth plated on MHA, ≥3 log reduction vs growth control
Description: as §1

[3] = test system: MRC5-SV2 cell line of human, embryonic lung fibroblasts; assay: Cytotoxicity screening of the peptide library; type: cell-based; conditions: 72 h, 37°C, resazurin fluorescence
Description: (§2) To determine early signs of peptide toxicity, the library was tested against the MRC5-SV2 cell line of human, embryonic lung fibroblasts (Sigma-Aldrich). Peptides were serially diluted in 96-well plates as described earlier at concentrations ranging from 64 μM to 0.25 μM for the first screening, and from 32 μM to 0.016 μM for the independent repeat. Tamoxifen (Sigma-Aldrich) was included as a reference compound. After preparation of the test plates, cell suspension (190 μL) of 1.5 × 10^5 cells/mL in complete minimum essential medium (Gibco) was added to the peptides. Plates were incubated for 72 h at 37°C in a 5% CO2 incubator (Binder). Afterwards, 50 μL of a 0.01% (wt/vol) resazurin (Sigma-Aldrich) solution was added to the wells to detect cell viability.

[4] = test system: P. aeruginosa ATCC 9027; type: cell-based, Pseudomonas aeruginosa; conditions: 16 h; for IC50: MHB, 37°C, resazurin; for MIC P. aeruginosa ATCC 9027: determined visually
Description: as §1

[5] = test system: C. albicans B59630; type: cell-based, Candida albicans; conditions: RPMI, 24 h, 37°C, resazurin
Description: as §1

[6] = test system: E. coli ATCC 8739; type: cell-based, Escherichia coli; conditions: 16 h; for IC50: MHB, 37°C, resazurin; for MIC E. coli ATCC 8739: determined visually
Description: as §1

[7] = Cytotoxicity screening of the peptide library; type: cell-based, human; conditions: human; both repeats; read-out: IC50 cell toxicity MRC5-SV2
Description: as §2

[8] = repeat 1, first screening 64-0.25 μM
[9] = repeat 2, independent repeat 32-0.016 μM

Compound	IC50 ([1]; repeat 1, 64-0.25 μM) [µM]	IC50 ([1]; repeat 2, 32-0.016 μM) [µM]	IC50 ([2]; repeat 1, 64-0.25 μM) [µM]	MIC S. aureus ATCC 6538 ([2]; repeat 1, 64-0.25 μM) [µM]	IC50 ([2]; repeat 2, 32-0.016 μM) [µM]	MIC S. aureus ATCC 6538 ([2]; repeat 2, 32-0.016 μM)	IC50 [3, 8] [µM]	IC50 [3, 9] [µM]	IC50 ([4]; repeat 1, 64-0.25 μM) [µM]	MIC P. aeruginosa ATCC 9027 ([4]; repeat 1, 64-0.25 μM)	IC50 ([4]; repeat 2, 32-0.016 μM) [µM]	MIC P. aeruginosa ATCC 9027 ([4]; repeat 2, 32-0.016 μM)	IC50 ([5]; repeat 1, 64-0.25 μM) [µM]	IC50 ([5]; repeat 2, 32-0.016 μM) [µM]	IC50 ([6]; repeat 1, 64-0.25 μM) [µM]	MIC E. coli ATCC 8739 ([6]; repeat 1, 64-0.25 μM) [µM]	IC50 ([6]; repeat 2, 32-0.016 μM) [µM]	MIC E. coli ATCC 8739 ([6]; repeat 2, 32-0.016 μM)	further results
LSCLFENQAVSAIACGASCITRKGKRGGWCSNGVCRCTPN [Hill-Def6, Defensin without disulfide bridges]	> 64	> 32	> 64	> 64.00	> 32	> 32.00 µM	> 64	> 32	> 64	> 64.00 µM	> 32	> 32.00 µM	> 64	> 32	> 64	> 64.00	> 32	> 32.00 µM	
QLPCDYLSGLGFGEDACNTDCIAKGHKSGFCTGLVCRCRTL [Hill-Def8, Defensin without disulfide bridges]	> 64	> 32	> 64	> 64.00	> 32	> 32.00 µM	> 64	> 32	> 64	> 64.00 µM	> 32	> 32.00 µM	> 64	> 32	> 64	> 64.00	> 32	> 32.00 µM	
CC[C@H](C)[C@H](N)C(=O)N[C@@H](CCCCN)C(=O)N[C@@H](CS)C(=O)N[C@H](C(=O)N1CCC[C@H]1C(=O)N[C@@H](CO)C(=O)N[C@@H](CCC(N)=O)C(=O)N[C@@H](CS)C(=O)N[C@@H](CC(N)=O)C(=O)N[C@@H](CCC(N)=O)C(=O)N[C@H](C(=O)N[C@@H](CS)C(=O)N[C@@H](CCCNC(=N)N)C(=O)N[C@H](C(=O)N[C@@H](CC(C)C)C(=O)NCC(=O)N[C@@H](CCCCN)C(=O)N[C@@H](CCCCN)C(=O)N[C@@H](CS)C(=O)NCC(=O)N[C@@H](Cc1ccc(O)cc1)C(=O)N[C@@H](CS)C(=O)N[C@@H](CCCCN)C(=O)N[C@@H](CC(N)=O)C(=O)N[C@@H](C)C(=O)N[C@@H](CO)C(=O)N[C@H](C(=O)N[C@@H](CS)C(=O)N[C@H](C(=O)N[C@@H](CS)C(=O)N[C@@H](CC(C)C)C(N)=O)C(C)C)[C@@H](C)O)C(C)C)[C@@H](C)CC)C(C)C [Hill-Knot2] (H-IKCVPSQCNQICRVLGKKCGYCKNASTCVCL-NH2; N-terminus assumed)																			IC50 [7]: < 32 µM
VTCDLLEPFLGPAPCMIHCIVRFRKRTGYCNSQNVCVCR [Hill-Def1, Defensin without disulfide bridges, C-terminal amidation]	> 64	> 32	> 64	> 64.00	> 32	> 32.00 µM	> 64	> 32	> 64	> 64.00 µM	> 32	> 32.00 µM	> 64	> 32	> 64	> 64.00	> 32	> 32.00 µM	
TTCDLISGTKIENIACAAHCIAMGHKGGYCNSNLICICR [Hill-Def7, Defensin without disulfide bridges]	> 64	> 32	> 64	> 64.00	> 32	> 32.00 µM	> 64	> 32	> 64	> 64.00 µM	> 32	> 32.00 µM	> 64	> 32	> 64	> 64.00	> 32	> 32.00 µM	
ATCDLLSPFKVGHAACAAHCIARGKRGGWCDKRAVCNCRK (also: bicyclic or more (positions not given here)) [Hill-Def2b, Defensin with disulfide bridges, counterpart of Hill-Def2a]	> 64	> 32	8.5	64.00	13.5	> 32.00 µM and 32.00 µM	> 64	> 32	> 64	> 32.00 µM and >64.00 µM	> 32	> 64.00 µM and >32.00 µM	> 64	> 32	> 64	> 32.00	> 32	> 64.00 µM and 64.00 µM	concentration for 90% growth inhibition of S. aureus / activity against S. aureus ([2]; library screening, both repeats): 32 µM and 64 µM; MBC S. aureus ATCC 6538 ([2]; repeat 1): static; MBC S. aureus ATCC 6538 ([2]; repeat 2): static
FNNLPICVEGLAGDIGSILLGVESDIGALAGAIANLALIAGECAAQGEAGAAICA-NH2 (cysteines drawn unpaired) [Hill-Stom1]				> 64.00		> 32.00 µM				> 32.00 µM		> 64.00 µM				> 32.00		> 64.00 µM	IC50 [7]: < 32 µM
ATCTNWNCRTQCIARGKRGGYCVERNICKCTS [Hill-Def3, Defensin without disulfide bridges]	> 64	> 32	> 64	> 64.00	> 32	> 32.00 µM	> 64	> 32	> 64	> 64.00 µM	> 3	> 32.00 µM	> 64	> 32	> 64	> 64.00	> 32	> 32.00 µM	
AMCDLLSGLNMGRSVCAMRCILKGHRGGWCDDQGVCNCRV [Hill-Def5, Defensin without disulfide bridges]	> 64	> 32	> 64	> 64.00	> 32	> 32.00 µM	> 64	> 32	> 64	> 64.00 µM	> 32	> 32.00 µM	> 64	> 32	> 64	> 64.00	> 32	> 32.00 µM	
